This is an account of results in patent US9145411B2, “Substituted amino-pyrimidine derivatives” (Asana Biosciences, LLC, priority 2012, dated 2015).

Assay [1] addresses T1, PI3Kα (wild-type) (Homo sapiens, UniProt P42336).
T1 construct: made in house; host or cells: SF9 insect cells
Description: PI3 Kinase TR-FRET assay, PI3Kα (wild-type). The format is biochemical. As to conditions: wild-type P110/P85α, 10 μM ATP. Put shortly: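 Sf9-expressed, Ni-purified p110/p85α (5 ng) with PIP2 was preincubated with compound for 60 min at room temperature in buffer with 40 mM MgCl2 and 5 mM DTT. The reaction ran 30 min at room temperature with 10 μM PIP2 and 10 μM ATP. The TR-FRET 665/615 nm ratio was used to derive IC50 from dose-response curves.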
A general note: TR-FRET usually uses a lanthanide donor and a delayed reading to cut background.

The target of assay [2] is T2, mTOR kinase (Homo sapiens, UniProt P42345).
T2 construct: purchased Millipore, USA
Description: mTOR kinase TR-FRET assay. The format is biochemical. As to conditions: 20 μM ATP. The method in brief: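 Test compounds were pre-incubated 60 min with mTOR (5 ng), then ULight-p70 S6K (Thr389) peptide (50 nM) and ATP (20 μM) were added in HEPES 50 mM pH 7.5, EGTA, MnCl2 3 mM. After 60 min at room temperature, EDTA stop and Eu-anti-phospho antibody TR-FRET (665/615 nm) gave IC50 from sigmoidal variable-slope fits.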

For assay [3], the system named is pAkt(T308). The experiment in a line: In-cell Western assay, pAkt(T308), PC3 cells. It counts as cell-based. As to conditions: Homo sapiens, PC-3, 2 hours incubation. The protocol: Cells from human prostate cancer cell line PC3 (American Type Culture Collection (ATCC), Manassas, Va. 20108 USA) were seeded at an optimal density of 22,000 cell/well in 96-well plates containing Ham's F12K medium (90 μL) and incubated overnight. The compound dilutions were carried out in 100% DMSO followed by a dilution in the medium. Test compounds were added in serial dilutions to the wells and incubated for 2 hours. The cells were washed and fixed with 4% paraformaldehyde. After incubation at room temperature for 1 hour in the dark, blocking was done for 2 hours at room temperature. Primary antibodies for pAkt(S473) ([…] phosphorylated at serine 473), pAkt(T308) (Akt phosphorylated at threonine 308) and for pS6RP (S235/236) (phosphorylated at serine 235/236) (commercially available from Cell Signaling Technology®, whose protocol was followed for the in-cell western assay, were diluted to the required concentration and added to the corresponding wells followed by overnight incubation at 4° C. Eu-labeled rabbit (PE) (Perkin-Elmer USA catalog #AD0106) secondary antibody was added and incubated for 2 hours at room temperature. Delfia® enhancement solution (cat #1244-105, Perkin Elmer USA) was subsequently added to the plate before taking the reading at 615 nm with excitation wavelength of 340 nm, after which 0.5 μg/mL of Hoechst® 33258 dye (Catalog #86140-5, Sigma) was added to the plate and fluorescence emission was read at 460 nm with 355 nm excitation, to evaluate the correction factor. IC50 values were calculated using a sigmoidal dose-response curve fit in GraphPad Prism® v5 software.

The test system of assay [4] is PC3 cells. The experiment in a line: XTT assay for cell viability, PC3 cells. The format is cell-based. As to conditions: Homo sapiens, PC-3; PC3 cell proliferation, 96 hours. Put shortly:
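Log-phase PC3 cells (1000/well) were seeded for 24 h, then exposed to serially diluted compounds (DMSO dilutions) for 96 h. Viability was measured by XTT dye conversion at 37 °C, with absorbance read at 465 nm. EC50 was obtained from a sigmoidal dose-response fit.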
A general note: Tetrazolium dyes change colour on reduction, which living cells bring about.

T1 sequence (P42336 whole entry, species assumed): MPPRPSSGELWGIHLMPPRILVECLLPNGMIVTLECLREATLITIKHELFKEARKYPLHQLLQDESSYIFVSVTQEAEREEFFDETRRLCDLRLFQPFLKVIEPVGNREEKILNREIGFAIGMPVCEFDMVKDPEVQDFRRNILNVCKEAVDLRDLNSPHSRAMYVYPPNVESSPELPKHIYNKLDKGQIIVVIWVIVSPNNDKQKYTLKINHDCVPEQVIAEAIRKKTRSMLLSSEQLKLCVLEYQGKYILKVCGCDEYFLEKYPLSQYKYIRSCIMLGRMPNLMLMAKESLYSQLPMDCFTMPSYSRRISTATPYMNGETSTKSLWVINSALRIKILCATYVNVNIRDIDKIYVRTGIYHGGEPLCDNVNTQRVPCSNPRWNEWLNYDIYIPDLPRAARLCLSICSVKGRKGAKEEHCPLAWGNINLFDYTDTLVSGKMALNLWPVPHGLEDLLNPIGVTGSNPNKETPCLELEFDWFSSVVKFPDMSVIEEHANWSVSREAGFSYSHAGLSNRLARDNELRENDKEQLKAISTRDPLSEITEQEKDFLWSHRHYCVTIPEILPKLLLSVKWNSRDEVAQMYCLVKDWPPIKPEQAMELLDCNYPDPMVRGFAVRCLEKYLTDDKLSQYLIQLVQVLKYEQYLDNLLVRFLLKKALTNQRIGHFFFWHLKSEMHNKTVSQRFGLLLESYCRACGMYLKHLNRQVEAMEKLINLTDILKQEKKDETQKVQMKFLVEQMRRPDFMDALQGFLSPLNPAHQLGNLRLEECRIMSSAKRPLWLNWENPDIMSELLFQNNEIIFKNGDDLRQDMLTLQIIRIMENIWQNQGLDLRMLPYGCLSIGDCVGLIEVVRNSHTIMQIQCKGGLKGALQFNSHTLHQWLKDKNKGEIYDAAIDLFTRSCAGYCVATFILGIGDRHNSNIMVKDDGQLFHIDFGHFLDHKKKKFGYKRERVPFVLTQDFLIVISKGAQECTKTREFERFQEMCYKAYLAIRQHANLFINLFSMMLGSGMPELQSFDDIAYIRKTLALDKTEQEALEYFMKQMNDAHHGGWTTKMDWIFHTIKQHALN
T1 sequence (P27986 whole entry partner, species assumed): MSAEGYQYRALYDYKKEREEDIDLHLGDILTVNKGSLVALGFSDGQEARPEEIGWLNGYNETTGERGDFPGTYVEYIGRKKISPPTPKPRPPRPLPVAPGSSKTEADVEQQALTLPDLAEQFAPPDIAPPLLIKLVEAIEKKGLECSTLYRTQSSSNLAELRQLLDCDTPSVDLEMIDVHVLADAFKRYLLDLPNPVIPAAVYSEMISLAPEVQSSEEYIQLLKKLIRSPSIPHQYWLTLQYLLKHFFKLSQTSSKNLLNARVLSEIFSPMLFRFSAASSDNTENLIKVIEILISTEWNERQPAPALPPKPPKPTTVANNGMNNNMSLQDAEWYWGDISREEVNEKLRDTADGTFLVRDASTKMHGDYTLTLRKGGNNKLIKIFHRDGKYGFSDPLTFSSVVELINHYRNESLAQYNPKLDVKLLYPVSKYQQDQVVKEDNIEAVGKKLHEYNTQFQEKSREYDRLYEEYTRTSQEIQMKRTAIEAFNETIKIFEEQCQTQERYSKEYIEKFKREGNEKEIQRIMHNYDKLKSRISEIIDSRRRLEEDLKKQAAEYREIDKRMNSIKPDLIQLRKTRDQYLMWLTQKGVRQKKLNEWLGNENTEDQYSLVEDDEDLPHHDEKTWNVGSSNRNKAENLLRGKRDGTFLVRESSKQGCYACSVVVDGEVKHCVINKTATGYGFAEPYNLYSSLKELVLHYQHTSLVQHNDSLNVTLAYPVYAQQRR
T2 sequence (P42345 1362-2549 limits assumed): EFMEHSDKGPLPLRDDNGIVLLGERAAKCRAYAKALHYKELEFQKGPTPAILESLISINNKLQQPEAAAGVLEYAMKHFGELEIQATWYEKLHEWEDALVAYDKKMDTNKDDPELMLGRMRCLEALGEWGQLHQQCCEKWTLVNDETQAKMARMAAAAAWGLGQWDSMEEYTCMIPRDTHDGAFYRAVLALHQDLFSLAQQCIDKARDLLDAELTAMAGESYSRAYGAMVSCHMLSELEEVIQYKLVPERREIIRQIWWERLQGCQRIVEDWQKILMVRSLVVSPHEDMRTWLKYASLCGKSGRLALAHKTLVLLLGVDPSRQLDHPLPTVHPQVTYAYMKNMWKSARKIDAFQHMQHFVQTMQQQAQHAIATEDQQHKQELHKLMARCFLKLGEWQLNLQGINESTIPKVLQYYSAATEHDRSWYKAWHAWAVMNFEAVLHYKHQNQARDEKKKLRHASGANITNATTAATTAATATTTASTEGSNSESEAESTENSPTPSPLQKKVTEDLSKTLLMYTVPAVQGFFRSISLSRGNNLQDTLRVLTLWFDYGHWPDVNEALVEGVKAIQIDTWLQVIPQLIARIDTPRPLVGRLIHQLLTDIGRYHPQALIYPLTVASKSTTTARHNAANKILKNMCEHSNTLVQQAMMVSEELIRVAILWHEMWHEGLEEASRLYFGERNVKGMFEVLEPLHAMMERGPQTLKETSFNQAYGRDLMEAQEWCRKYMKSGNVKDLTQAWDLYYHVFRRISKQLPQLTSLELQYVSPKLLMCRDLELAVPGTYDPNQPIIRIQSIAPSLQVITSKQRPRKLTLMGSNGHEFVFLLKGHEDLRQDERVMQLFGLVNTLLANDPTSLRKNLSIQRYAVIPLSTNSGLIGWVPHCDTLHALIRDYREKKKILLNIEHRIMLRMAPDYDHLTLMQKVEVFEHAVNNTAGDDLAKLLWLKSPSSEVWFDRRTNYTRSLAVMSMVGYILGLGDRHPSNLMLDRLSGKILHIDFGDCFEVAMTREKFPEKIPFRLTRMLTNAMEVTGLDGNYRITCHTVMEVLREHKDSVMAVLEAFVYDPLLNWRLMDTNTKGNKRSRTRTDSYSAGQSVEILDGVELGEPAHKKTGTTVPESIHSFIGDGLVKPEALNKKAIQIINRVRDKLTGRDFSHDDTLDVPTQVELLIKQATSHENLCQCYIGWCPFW

Regarding `CNC(=O)Nc1ccc(-c2cnc3c(N4CCOCC4)nc(-c4cnc(N)nc4)nc3c2)cc1` [Example 29, 1-(4-(2-(2-amino-pyrimidin-5-yl)-4-morpholinopyrido[3,2-d]pyrimidin-7-yl)phenyl)-3-methylurea], the IC50 (as a rule, the concentration that inhibits the measured activity by half) was below 50 nM in assay [1], below 50 nM in assay [2], 100 to 500 nM in assay [3] and 100 to 500 nM in assay [4].
On to `Nc1ncc(-c2nc(N3CCOCC3)c3ncc(-c4ccc(NS(=O)(=O)C5CC5)cc4)cc3n2)cn1` [Example 82, N-(4-(2-(2-amino-pyrimidin-5-yl)-4-morpholinopyrido[3,2-d]-pyrimidin-7-yl)phenyl)-cyclopropanesulfonamide], for which the IC50 in assay [1] was below 50 nM; in assay [2], below 50 nM; in assay [3] it was below 100 nM; in assay [4], 100 to 500 nM.
For `Nc1ncc(-c2nc(N3CCOCC3)c3ncc(-c4cccc(NS(=O)(=O)C5CC5)c4)cc3n2)cn1` [Example 81, N-(3-(2-(2-amino-pyrimidin-5-yl)-4-morpholinopyrido[3,2-d]pyrimidin-7-yl)-phenyl)cyclopropane-sulfonamide], the IC50 in assay [1] was below 50 nM; in assay [2] it was below 50 nM; in assay [3], below 100 nM; in assay [4], 100 to 500 nM.
In the case of `Nc1ncc(-c2nc(N3CCOCC3)c3ncc(-c4cccc(NC(=O)C5CCC5)c4)cc3n2)cn1` [Example 76, N-(3-(2-(2-amino-pyrimidin-5-yl)-4-morpholinopyrido[3,2-d]pyrimidin-7-yl)-phenyl)cyclobutane-carboxamide], the IC50 in assay [1] was below 50 nM; in assay [2], below 50 nM; in assay [3] it was below 100 nM; in assay [4], 100 to 500 nM.
In the case of `CN1CCN(CC(=O)Nc2ccc(F)c(-c3cnc4c(N5CCOCC5)nc(-c5cnc(N)nc5)nc4c3)c2)CC1` [Example 85, N-(3-(2-(2-aminopyrimidin-5-yl)-4-morpholinopyrido[3,2-d]pyrimidin-7-yl)-4-fluorophenyl)-2-(4-methylpiperazin-1-yl)-acetamide], the IC50 in assay [1] is below 50 nM; in assay [2], below 50 nM; in assay [3], 100 to 500 nM; in assay [4] it was 100 to 500 nM.
Turning to `Nc1ncc(-c2nc(N3CCOCC3)c3ncc(-c4cccc(NS(=O)(=O)c5ccc(F)cc5)c4)cc3n2)cn1` [Example 8, N-(3-(2-(2-aminopyrimidin-5-yl)-4-morpholinopyrido[3,2-d]pyrimidin-7-yl)phenyl)-4-fluorobenzenesulfonamide], the IC50 was below 50 nM in assay [1], below 50 nM in assay [2], 100 to 500 nM in assay [3] and 501 to 5000 nM in assay [4].
As for `CNC(=O)c1cccc(-c2cnc3c(N4CCOCC4)nc(-c4cnc(N)nc4)nc3c2)c1` [Example 103, 3-(2-(2-aminopyrimidin-5-yl)-4-morpholinopyrido[3,2-d]-pyrimidin-7-yl)-N-methylbenzamide], the IC50 was below 50 nM in assay [1], 50 to 200 nM in assay [2], below 100 nM in assay [3] and below 100 nM in assay [4].
For `CC(C)(O)c1cccc(-c2cnc3c(N4CCOCC4)nc(-c4cnc(N)nc4)nc3c2)c1` [Example 109, 2-(3-(2-(2-amino-pyrimidin-5-yl)-4-morpholinopyrido[3,2-d]pyrimidin-7-yl)-phenyl)propan-2-ol], the half-maximal inhibitory concentration (IC50) in assay [1] was below 50 nM; in assay [2], 50 to 200 nM; in assay [3], 501 to 5000 nM; in assay [4], 100 to 500 nM.
As to `Nc1ncc(-c2nc(N3CCOCC3)c3ncc(-c4cccc(NC(=O)CN5CCC(O)CC5)c4)cc3n2)cn1` [Example 9, N-(3-(2-(2-Aminopyrimidin-5-yl)-4-morpholinopyrido[3,2-d]pyrimidin-7-yl)-phenyl)-2-(4-hydroxypiperidin-1-yl)acetamide], the IC50 is below 50 nM in assay [1], below 50 nM in assay [2], below 100 nM in assay [3] and 100 to 500 nM in assay [4].
For `CC(=O)Nc1ccc(-c2cnc3c(N4CCOCC4)nc(-c4cnc(N)nc4)nc3c2)cc1` [Example 54, N-(4-(2-(2-amino-pyrimidin-5-yl)-4-morpholinopyrido[3,2-d]pyrimidin-7-yl)-phenyl)acetamide], the IC50 in assay [1] was below 50 nM; in assay [2], below 50 nM; in assay [3], below 100 nM; in assay [4] it was 100 to 500 nM.
As for `CNC(=O)c1ccc(-c2cnc3c(N4CCOCC4)nc(-c4cnc(N)nc4)nc3c2)cc1` [Example 33, 4-(2-(2-aminopyrimidin-5-yl)-4-morpholinopyrido[3,2-d]pyrimidin-7-yl)-N-methylbenzamide], the IC50 was below 50 nM in assay [1], below 50 nM in assay [2], 100 to 500 nM in assay [3] and 100 to 500 nM in assay [4].
As for `CCC(=O)Nc1cccc(-c2cnc3c(N4CCOCC4)nc(-c4cnc(N)nc4)nc3c2)c1` [Example 104, N-(3-(2-(2-amino-pyrimidin-5-yl)-4-morpholinopyrido[3,2-d]-pyrimidin-7-yl)-phenyl)propionamide], the IC50 is below 50 nM in assay [1], below 50 nM in assay [2], below 100 nM in assay [3] and 100 to 500 nM in assay [4].
Consider `Nc1ncc(-c2nc(N3CCOCC3)c3ncc(-c4cccc(NC(=O)C5CCC(O)CC5)c4)cc3n2)cn1` (stereo not shown) [Example 70, N-(3-(2-(2-amino-pyrimidin-5-yl)-4-morpholinopyrido[3,2-d]pyrimidin-7-yl)phenyl)-4-hydroxycyclohexane-carboxamide], for which the IC50 in assay [1] is below 50 nM; in assay [2], below 50 nM; in assay [3] it was 100 to 500 nM; in assay [4], 100 to 500 nM.
Take `Nc1ncc(-c2nc(N3CCOCC3)c3ncc(-c4cccc(NC(=O)c5cccnc5)c4)cc3n2)cn1` [Example 58, N-(3-(2-(2-amino-pyrimidin-5-yl)-4-morpholinopyrido[3,2-d]pyrimidin-7-yl)-phenyl)nicotinamide]: the IC50 in assay [1] was below 50 nM; in assay [2], below 50 nM; in assay [3], below 100 nM; in assay [4], 100 to 500 nM.
Take `CC(C)C(=O)Nc1cccc(-c2cnc3c(N4CCOCC4)nc(-c4cnc(N)nc4)nc3c2)c1` [Example 105, N-(3-(2-(2-amino-pyrimidin-5-yl)-4-morpholinopyrido[3,2-d]-pyrimidin-7-yl)-phenyl)isobutyramide]: the IC50 in assay [1] is below 50 nM; in assay [2], below 50 nM; in assay [3] it was 501 to 5000 nM; in assay [4], 100 to 500 nM.
As for `CC(=O)Nc1cccc(-c2cnc3c(N4CCOCC4)nc(-c4cnc(N)nc4)nc3c2)c1C` [Example 56, N-(3-(2-(2-amino-pyrimidin-5-yl)-4-morpholinopyrido[3,2-d]pyrimidin-7-yl)-2-methylphenyl)acetamide], the IC50 was below 50 nM in assay [1], 50 to 200 nM in assay [2], 100 to 500 nM in assay [3] and 100 to 500 nM in assay [4].
Take `Nc1ncc(-c2nc(N3CCOCC3)c3ncc(-c4cccc(NC(=O)c5cnccc5C(F)(F)F)c4)cc3n2)cn1` [Example 68, N-(3-(2-(2-amino-pyrimidin-5-yl)-4-morpholinopyrido[3,2-d]pyrimidin-7-yl)phenyl)-4-(trifluoromethyl)-nicotinamide]: the IC50 in assay [1] is below 50 nM; in assay [2], below 50 nM; in assay [3], below 100 nM; in assay [4], 100 to 500 nM.
`Nc1ncc(-c2nc(N3CCOCC3)c3ncc(-c4cccc(NC(=O)C5CCCC5)c4)cc3n2)cn1` [Example 57, N-(3-(2-(2-amino-pyrimidin-5-yl)-4-morpholinopyrido[3,2-d]pyrimidin-7-yl)-phenyl)cyclopentane-carboxamide]: the IC50 in assay [1] was below 50 nM; in assay [2] it was below 50 nM; in assay [3] it was 100 to 500 nM; in assay [4], 501 to 5000 nM.
Take `Nc1ncc(-c2nc(N3CCOCC3)c3ncc(-c4cncc(NC(=O)C5CC5)c4)cc3n2)cn1` [Example 31, N-(5-(2-(2-amino-pyrimidin-5-yl)-4-morpholinopyrido[3,2-d]pyrimidin-7-yl)pyridin-3-yl)cyclopropane-carboxamide]: the IC50 is below 50 nM in assay [1], below 50 nM in assay [2], 100 to 500 nM in assay [3] and below 100 nM in assay [4].
